SMILES strings stand for the structures.

Data on 20 compounds can be found in patent publication US8158647B2, “Substituted pyrrolopyridines and pyrazolopyridines as kinase modulators” (SGX Pharmaceuticals, Inc., priority 2007, dated 2012).

Experiment [1] concerns the target T1, purified and unphosphorylated T315I Abl kinase domain (ABL_T315I_0P) (Mus musculus, UniProt P00520, T315I).
T1 construct: The c-Abl T3151 KD (kinase domain) was purified as follows; Met-Ser-Leu (vector-derived residues) (N); made in house; host or cells: E. coli BL21(DE3) strains (Codon+RIL, or pSA0145 for the lambda phosphatase co-expression plasmid)
T1 sequence (P00520 242-493 T315I limits assumed): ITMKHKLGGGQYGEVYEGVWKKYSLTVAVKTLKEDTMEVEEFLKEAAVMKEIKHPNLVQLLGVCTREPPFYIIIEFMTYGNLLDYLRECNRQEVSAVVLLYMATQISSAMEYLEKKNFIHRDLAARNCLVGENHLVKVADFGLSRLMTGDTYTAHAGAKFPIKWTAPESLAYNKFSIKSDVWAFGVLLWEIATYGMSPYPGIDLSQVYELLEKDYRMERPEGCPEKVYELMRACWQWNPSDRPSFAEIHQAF
The experiment in a line: c-Abl T315I (unphosphorylated kinase domain) pyruvate kinase/lactate dehydrogenase coupled enzyme assay. The format is biochemical. The conditions noted are these: 10 μM ATP. From the text: Although the first of these examples uses the kinase domain of a mutant form of Abl T315I (“Abl T315I KD”), the kinase assays may use various forms of mutant and wild type enzymes, including, for example, the entire protein, the kinase domain, or a portion thereof (e.g. Abl Y393F). The kinases used in the assays may also be of varying phosphorylation states. In the c-Abl example, a mutant kinase at a zero phosphorylation state was used.
c-Abl Pyruvate Kinase/Lactate Dehydrogenase Coupled Enzyme Assay
In the c-Abl Pyruvate Kinase (PK)/Lactate Dehydrogenase (LDH) Coupled Assay the protein kinase dependant phosphorylation of a substrate peptide was coupled to the oxidation of NADH. The oxidation of NADH to NAD+ was detected by monitoring a decrease in absorbance at 340 nm.
Materials: Abl substrate peptide=EAIYAAPFAKKK-OH (SEQ ID NO: 1) (Biopeptide, San Diego, Calif.); […]NADH (Sigma Cat#N-8129, FW=709.4); 2M MgCl2; 1M HEPES buffer, pH 7.5; Phosphoenolpyruvate (PEP) (Sigma Cat#P-7002, FW=234); Lactate dehydrogenase (LDH) (Worthington Biochemical Cat#2756); Pyruvate Kinase (PK) (Sigma Cat#P-9136); ATP (Sigma Cat#A-3377, FW=551); Greiner 384-well UV star plate; and purified and unphosphorylated T3151 Abl kinase domain.
Stock Solutions: 10 mM NADH (7.09 mg/ml in miliQH2O) made fresh daily; 10 mM Abl substrate peptide (13.4 mg/ml in miliQH2O) stored at −20° C.; 100 mM HEPES buffer, pH 7.5 (5 ml 1M stock+45 ml miliQH2O); 100mM MgCl2 (5 ml 2M MgCl2+95 ml dH2O); 100 mM PEP (23.4 mg/ml in dH2O) stored at −20° C.; 10mM ATP (5.51 mg/ml in dH2O) stored at −20° C. (diluted 50 μl into total of 10 ml miliQH2O daily=50 μM ATP working stock); 1000 U/ml PK (U/mg varies with lot) flash-frozen under liquid N2 and stored at −80° C.; and 1000 U/ml LDH (U/mg varies with lot) flash-frozen under liquid N2 and stored at −80° C.
Standard Assay Setup for 384-well format (50 μl reaction): 300 μM NADH; 10 mM MgCl2; 2 mM PEP; 45 U/ml PK; 60 U/ml LDH; 200 μM Abl substrate peptide; 2.5 μl test compound (in DMSO); 2 μg/ml Abl kinase domain; 10 μM ATP; 100 mM HEPES buffer. Positive controls contained DMSO with no test compound. Negative controls contained 5 μl of 0.5M EDTA (50 mM in the assay). The dephosphorylated form of the c-Abl T315I mutant was used in the biochemical screening assays. The kinase reaction was initiated at time t=0 by the addition of ATP.
Activity was measured by following the time-dependent loss of NADH by absorbance spectroscopy at 340 nm. The linear portion of the resulting progress curve was then analyzed by linear regression to get the activity in absorbance units/time, reported as the slope of that best fit line (moles/unit time can be calculated from using molar extinction coefficient for NADH at 340 nm, 6250M^−1 cm^−1).
Screening data was evaluated using the equation: Z′=1-[3*(σ++σ−)/|μ+−μ−|] (Zhang, et al., 1999 J Biomol Screening 4(2) 67-73), where μ denotes the mean and σ the standard deviation. The subscript designates positive or negative controls. The Z′ score for a robust screening assay should be ≧0.50. The typical threshold=μ+−3*σ+−. Any value that falls below the threshold was designated a “hit”.
Dose response was analyzed using the equation: y=min+{(max−min)/(1+10^[compound]−logIC50)}, where y is the observed initial slope, max=the slope in the absence of inhibitor, min=the slope at infinite inhibitor, and the IC50 is the [compound] that corresponds to ½ the total observed amplitude (Amplitude=max−min).
To measure modulation, activation, or inhibition of Abl KD, a test compound was added to the assay at a range of concentrations. Inhibitors may inhibit Abl KD activity at an IC50 in the micromolar range, the nanomolar range, or, for example, in the subnanomolar range.
An open-reading frame for c-Abl was amplified from a Mus musculus (mouse) cDNA library prepared from freshly harvested mouse liver using a commercially available kit (Invitrogen) by PCR using the following primers: […]
The c-Abl T3151 KD (kinase domain) was purified as follows. […]

The target in the next experiment is T2, ABL P210WT BAF3 cells (Homo sapiens, UniProt P00519).
T2 construct: ABL P210WT BAF3; fused on or other part: P11274 (Breakpoint cluster region protein)
The experiment in a line: 96-well XTT cell survival assay, BaF3 ABL P210WT. The conditions noted are these: ABL P210 WT, 72 hours, read-out: CELL BIO ABL P210WT BAF3 XTT (IC50). The format is cell-based. The procedure:
(§1) MV4-11 and THP cells were maintained in Iscove's Modified Dulbecco's Medium supplemented with 10% fetal bovine serum (FBS) and penicillin/streptomycin, Ba/F3 cells were maintained in RPMI 1640 supplemented with 10% FBS, penicillin/streptomycin and 5 ng/ml recombinant mouse IL-3.
(§2) Compounds were tested in the following assays in duplicate.
(§3) 96-well XTT assay: Cells (e.g. BaF3 315I, M3511, or E255K cells) were grown in growth media containing various concentrations of compounds (duplicates) on a 96-well plate for 72 hours at 37° C. The starting cell number was 5000-8000 cells per well and volume was 120 μl. At the end of the 72-hour incubation, 40 μl of XTT labeling mixture (50:1 solution of sodium 3′-[1-(phenylamino-carbonyl)-3,4-tetrazolium]-bis(4-methoxy-6-nitro) benzene sulfonic acid hydrate and Electron-coupling reagent: PMS (N-methyl dibenzopyrazine methyl sulfate) were added to each well of the plate. After an additional 2-6 hours of incubation at 37° C., the absorbance reading at 405 nm with background correction at 650 nm was measured with a spectrophotometer.
(In general: Tetrazolium dyes change colour on reduction, which living cells bring about.)

The target in a further experiment is T3, ABL T315I BAF3 cells (Homo sapiens, UniProt P00519, T315I, cells depend on it).
T3 construct: ABL T315I BAF3; fused on or other part: P11274 (Breakpoint cluster region protein)
The experiment in a line: 96-well XTT cell survival assay, BaF3 ABL T315I. The conditions noted are these: 72 hours, read-out: CELL BIO ABL T315I BAF3 XTT (IC50). The format is cell-based. As for the experimental part:
as §1, §2, §3

Turning to `CN(C)C(=O)C(O)c1cc(-c2cnc3[nH]cc(-c4ccccc4F)c3c2Cl)cnc1N` (stereo not shown), the “ABL_T315I_0P (IC50)” value in experiment [1] is listed as “D (<0.01 μM)”. Besides, the GI50 at ABL P210WT BAF3 cells was 100 to 1000 nM; on ABL T315I BAF3 cells, 10 to 100 nM.

As to `NC(=O)C(O)c1cncc(-c2cnc3[nH]cc(-c4ccccc4F)c3c2Cl)c1` (stereo not shown), the “ABL_T315I_0P (IC50)” value in experiment [1] was “D (<0.01 μM)”. Further, the GI50 at ABL P210WT BAF3 cells and on ABL T315I BAF3 cells was greater than 1000 nM each time.

`CNc1ncccc1-c1c[nH]c2ncc(-c3cncc(C(O)C(=O)N(C)C)c3)c(Cl)c12` (stereo not shown): the “ABL_T315I_0P (IC50)” value in experiment [1] is on record as “C (0.1-0.01 μM)”. The GI50 at ABL P210WT BAF3 cells and at ABL T315I BAF3 cells was greater than 1000 nM each time.

In the case of `COc1cc(Cl)c(F)cc1-c1c[nH]c2ncc(-c3cnc(N)c(C(=O)N(C)C)c3)cc12`, the IC50 (in general, the midpoint of a concentration-inhibition curve) in experiment [1] is less than 10 nM. For the same compound, the results for the GI50 at ABL P210WT BAF3 cells and on ABL T315I BAF3 cells were less than 10 nM and 10 to 100 nM, respectively.

For the compound `CN(C)C(=O)c1cncc(-c2cnc3[nH]cc(-c4ccccc4F)c3c2Cl)c1`, the “ABL_T315I_0P (IC50)” value in experiment [1] is listed as “D (<0.01 μM)”. Besides, the GI50 at ABL P210WT BAF3 cells and at ABL T315I BAF3 cells was 100 to 1000 nM throughout.

On to `CN(C)C(=O)c1cncc(-c2cnc3[nH]cc(-c4ccc(F)cc4)c3c2Cl)c1`, for which, in experiment [1], the “ABL_T315I_0P (IC50)” value is given as “C (0.1-0.01 μM)”. The GI50 on ABL P210WT BAF3 cells is 100 to 1000 nM; at ABL T315I BAF3 cells it was greater than 1000 nM.

Take `CN(C)C(=O)c1cncc(-c2cnc3[nH]cc(-c4cccc(F)c4F)c3c2Cl)n1`: in experiment [1], the “ABL_T315I_0P (IC50)” value is on record as “D (<0.01 μM)”. Also, the GI50 at ABL P210WT BAF3 cells and on ABL T315I BAF3 cells was 100 to 1000 nM each time.

Turning to `CNC(=O)c1cncc(-c2cnc3[nH]cc(-c4ccccc4F)c3c2Cl)n1`, in experiment [1], the “ABL_T315I_0P (IC50)” value was “C (0.1-0.01 μM)”. Also, the GI50 on ABL P210WT BAF3 cells and at ABL T315I BAF3 cells was greater than 1000 nM each time.

Regarding `OC(c1cncc(-c2cnc3[nH]cc(-c4ccccc4F)c3c2Cl)c1)c1ncccc1F` (stereo not shown), the “ABL_T315I_0P (IC50)” value in experiment [1] is reported as “D (<0.01 μM)”. Moreover, the GI50 at ABL P210WT BAF3 cells and at ABL T315I BAF3 cells was 100 to 1000 nM each time.

Consider `CN(C)C(=O)c1cc(-c2cnc3[nH]cc(-c4cc[nH]n4)c3c2Cl)cnc1N` [2-Amino-5-[4-chloro-3-(1H-pyrazol-3-yl)-1H-pyrrolo[2,3-b]pyridin-5-yl]-N,N-dimethyl-nicotinamide], for which the “ABL_T315I_0P (IC50)” value in experiment [1] is “C (0.1-0.01 μM)”. The GI50 on ABL P210WT BAF3 cells and on ABL T315I BAF3 cells was greater than 1000 nM throughout.

As to `COc1cc(C#N)ccc1-c1c[nH]c2ncc(-c3cnc(N)c(C(=O)N(C)C)c3)c(Cl)c12` [2-Amino-5-[4-chloro-3-(4-cyano-2-methoxy-phenyl)-1H-pyrrolo[2,3-b]pyridin-5-yl]-N,N-dimethyl-nicotinamide], in experiment [1], the “ABL_T315I_0P (IC50)” value is listed as “C (0.1-0.01 μM)”.

As to `CN(C)C(=O)C(O)c1cncc(-c2cnc3[nH]nc(-c4ccccc4)c3c2Cl)c1` (stereo not shown) [2-[5-(4-Chloro-3-phenyl-1H-pyrazolo[3,4-b]pyridin-5-yl)-pyridin-3-yl]-2-hydroxy-N,N-dimethyl-acetamide], the “ABL_T315I_0P (IC50)” value in experiment [1] is recorded as “B (1.0-0.1 μM)”.

For the compound `COc1ccccc1-c1c[nH]c2ncc(Br)c(NCCO)c12` [2-[5-Bromo-3-(2-methoxy-phenyl)-1H-pyrrolo[2,3-b]pyridin-4-ylamino]-ethanol], in experiment [1], the “ABL_T315I_0P (IC50)” value is on record as “B (1.0-0.1 μM)”.

`CN(C)C(=O)C(O)c1cncc(-c2cnc3[nH]nc(-c4ccccc4F)c3c2Cl)c1` (stereo not shown) [2-{5-[4-Chloro-3-(2-fluoro-phenyl)-1H-pyrazolo[3,4-b]pyridin-5-yl]-pyridin-3-yl}-2-hydroxy-N,N-dimethyl-acetamide]: the “ABL_T315I_0P (IC50)” value in experiment [1] is on record as “B (1.0-0.1 μM)”.

In the case of `CN(C)C(=O)C(=O)c1cncc(-c2cnc3[nH]cc(-c4ccc(F)cc4)c3c2Cl)c1` [2-{5-[4-Chloro-3-(4-fluoro-phenyl)-1H-pyrrolo[2,3-b]pyridin-5-yl]-pyridin-3-yl}-N,N-dimethyl-2-oxo-acetamide], in experiment [1], the “ABL_T315I_0P (IC50)” value is “B (1.0-0.1 μM)”.

As for `CC(C)c1ncncc1-c1c[nH]c2ncc(-c3cncc(C(O)C(=O)N(C)C)c3)c(Cl)c12` (stereo not shown) [2-{5-[4-Chloro-3-(4-isopropyl-pyrimidin-5-yl)-1H-pyrrolo[2,3-b]pyridin-5-yl]-pyridin-3-yl}-2-hydroxy-N,N-dimethyl-acetamide], the “ABL_T315I_0P (IC50)” value in experiment [1] is “B (1.0-0.1 μM)”.

On to `COc1ccccc1-c1c[nH]c2ncc(-c3cncc(C(O)C(=O)N(C)C)c3)c(N(C)C)c12` (stereo not shown) [2-{5-[4-Dimethylamino-3-(2-methoxy-phenyl)-1H-pyrrolo[2,3-b]pyridin-5-yl]-pyridin-3-yl}-2-hydroxy-N,N-dimethyl-acetamide], for which, in experiment [1], the “ABL_T315I_0P (IC50)” value is listed as “B (1.0-0.1 μM)”.

Take `COc1ccccc1-c1c[nH]c2ncc(-c3cnn(C)c3)c(N)c12` [3-(2-Methoxy-phenyl)-5-(1-methyl-1H-pyrazol-4-yl)-1H-pyrrolo[2,3-b]pyridin-4-ylamine]: the “ABL_T315I_0P (IC50)” value in experiment [1] is on record as “B (1.0-0.1 μM)”.

Consider `CSc1c(Br)cnc2[nH]cc(I)c12` [5-Bromo-3-iodo-4-methylsulfanyl-1H-pyrrolo[2,3-b]pyridine], for which the “ABL_T315I_0P (IC50)” value in experiment [1] is recorded as “A (>1.0 μM)”.

Turning to `COc1ccccc1-c1c[nH]c2ncc(Br)c(Cl)c12` [5-Bromo-4-chloro-3-(2-methoxy-phenyl)-1H-pyrrolo[2,3-b]pyridine], the “ABL_T315I_0P (IC50)” value in experiment [1] is given as “C (0.1-0.01 μM)”.
